Measurements from patent publication US8389472B2, “Exendin-4 to treat nonalcoholic steatohepatitis and nonalcoholic fatty liver disease” (Amylin Pharmaceuticals, LLC, priority 2005, dated 2013).
No end group written: not given here.

How the values were obtained:
[1] = in treated test animals; cited from earlier work
[2] = adsorption onto glass container in liquid form; assay type: physicochemical
Text: However, with regard to compounds Which do have such a tendency when in liquid final, a surfactant should be used in their formulation. These formulations may then be lyophilized. Surfactants frequently cause denaturation of protein, both of hydrophobic disruption and by salt bridge separation. Relatively low concentrations of surfactant may exert a potent denaturing activity, because of the strong interactions between surfactant moieties and the reactive sites on proteins. However, judicious use of this interaction can stabilize proteins against interfacial or surface denaturation. Surfactants which could further stabilize the peptide may optionally be present in the range of about 0.001 to 0.3% (w/v) of the total formulation and include polysorbate 80 (i.e., polyoxyethylene(20) sorbitan monooleate), CHAPS® (i.e., 3-[(3-Cholamidopropyl)dimethylammonio]propanesulfonic acid), BRIJ® (e.g., Brij 35, which is (polyoxyethylene(23) lauryl ether), poloxamer, or another non-ionic surfactant.

[3] = compared to human amylin; cited from earlier work
cloned GLP-1 receptor = conditions: cells transfected with the cloned GLP-1 receptor; cited from earlier work
T2DM patients = conditions: head-to-head comparator trial; cited from earlier work

## CC[C@H](C)[C@H](NC(=O)[C@@H]1CCCN1C(=O)CNC(=O)[C@H](Cc1ccccc1)NC(=O)[C@H](CC(N)=O)NC(=O)[C@H](CC(N)=O)NC(=O)[C@H](CO)NC(=O)[C@H](CO)NC(=O)[C@H](Cc1c[nH]cn1)NC(=O)[C@@H](NC(=O)[C@H](CC(C)C)NC(=O)[C@H](Cc1ccccc1)NC(=O)[C@H](CC(N)=O)NC(=O)[C@H](C)NC(=O)[C@H](CC(C)C)NC(=O)[C@H](CCCNC(=N)N)NC(=O)[C@H](CCC(N)=O)NC(=O)[C@@H](NC(=O)[C@H](C)NC(=O)[C@@H]1CSSC[C@H](NC(=O)[C@@H](N)CCCCN)C(=O)N[C@@H](CC(N)=O)C(=O)N[C@@H]([C@@H](C)O)C(=O)N[C@@H](C)C(=O)N[C@@H]([C@@H](C)O)C(=O)N1)[C@@H](C)O)C(C)C)C(=O)N[C@@H](CC(C)C)C(=O)N1CCC[C@H]1C(=O)N1CCC[C@H]1C(=O)N[C@H](C(=O)N[C@@H](CC(N)=O)C(=O)N[C@H](C(=O)NCC(=O)N[C@@H](CO)C(=O)N[C@@H](CC(N)=O)C(=O)N[C@H](C(=O)N[C@@H](Cc1ccc(O)cc1)C(N)=O)[C@@H](C)O)C(C)C)[C@@H](C)O [^25,28,29Pro-h-amylin, reference compound]
[1]
  amylin activity: amylin activity in vivo
[2]
  tendency to adsorb onto the glass: does not have a tendency to adsorb onto the glass

## ^18Arg^25,28Pro-h-amylin (KCNTATCATQRLANFLVRSSNNFGPILPSTNVGSNTY) [amylin agonist analog]
[1]
  amylin activity: amylin activity in vivo
[3]
  solubility and stability characteristics: more desirable solubility and stability characteristics

## ^25Pro^26Val^28,29Pro-h-amylin (KCNTATCATQRLANFLVHSSNNFGPVLPPTNVGSNTY) [amylin agonist analog]
[3]
  solubility and stability characteristics: more desirable solubility and stability characteristics

## ^28Pro-h-amylin (KCNTATCATQRLANFLVHSSNNFGAILPSTNVGSNTY) [amylin agonist analog]
[1]
  amylin activity: amylin activity in vivo

## des-^1Lys-h-amylin (CNTATCATQRLANFLVHSSNNFGAILSSTNVGSNTY; ends and bridges not checked; cysteine pairing not given here; UniProt P10997 34-70, looked up, variant K1*) [amylin agonist analog]
[1]
  amylin activity: amylin activity in vivo

## des-^1Lys^18Arg^25,28Pro-h-amylin
[1]
  amylin activity: amylin activity in vivo

## exendin[9-39]
Cloned GLP-1 receptor
  functional activity (cAMP): antagonist

## insulin glargine
T2DM patients
  HbA1c reductions: ~1.1%
  weight gain: ~1.8 kg
